In ChEMBL document CHEMBL3885861, “Open TG-GATES”:

Species on record: Rattus norvegicus
Experiment: Open TG-GATES - Regimen: Daily Repeat
Assay type: toxicity, organism-based, Sprague-Dawley
Design: regimen Daily Repeat, gender Male, age 6 weeks
Settings: in vivo, po, 2 mg/kg, route gavage, dose level Low; for APTT / Bas / Eos / Fbg / Hb / Lym / MCH / MCHC / MCV / Mono / Neu / PT / Plat / RBC / Ret / WBC: tissue Blood; for KIDNEY_L / KIDNEY_R / KIDNEY_TOTAL: tissue Kidney; for LIVER: tissue Liver; for ALP / ALT / AST / BUN / CRE / Ca / Cl / DBIL / GLC / IP / K / LDH / Na / PL / RALB / TBIL / TC / TG / TP / gamma-GTP: tissue Plasma

OCCN1CCN(CCCN2c3ccccc3Sc3ccc(C(F)(F)F)cc32)CC1 [FLUPHENAZINE]
TERMINAL_BW (72 h, time 3 day): 226 g
APTT (72 h, time 3 day): 16.5 s
Bas (72 h, time 3 day): 0%
Eos (72 h, time 3 day): 1%
Fbg (72 h, time 3 day): 221.4 mg/dL
Hb (72 h, time 3 day): 13.7 g/dL
Lym (72 h, time 3 day): 80%
MCH (72 h, time 3 day): 22.3 pg
MCHC (72 h, time 3 day): 33.6%
MCV (72 h, time 3 day): 66.3 fL
Mono (72 h, time 3 day): 6.8%
Neu (72 h, time 3 day): 12.6%
PT (72 h, time 3 day): 12.2 s
Plat (72 h, time 3 day): 101.3 x10_4/uL
RBC (72 h, time 3 day): 613 x10_4/ul
Ret (72 h, time 3 day): 5.3%
WBC (72 h, time 3 day): 100.9 x10_2/uL
KIDNEY_L (72 h, time 3 day): 1 g
KIDNEY_R (72 h, time 3 day): 1 g
KIDNEY_TOTAL (72 h, time 3 day): 2 g
LIVER (72 h, time 3 day): 11.4 g
ALP (72 h, time 3 day): 869.2 IU/L
ALT (72 h, time 3 day): 36 IU/L
AST (72 h, time 3 day): 69.6 IU/L
BUN (72 h, time 3 day): 20.4 mg/dL
CRE (72 h, time 3 day): 0.5 mg/dL
Ca (72 h, time 3 day): 11 mg/dL
Cl (72 h, time 3 day): 104.6 meq/L
DBIL (72 h, time 3 day): 0.008 mg/dL
GLC (72 h, time 3 day): 194.6 mg/dL
IP (72 h, time 3 day): 8.5 mg/dL
K (72 h, time 3 day): 4.8 meq/L
LDH (72 h, time 3 day): 156.6 IU/L
Na (72 h, time 3 day): 137.6 meq/L
PL (72 h, time 3 day): 172.8 mg/dL
RALB (72 h, time 3 day): 4.1 g/dL
TBIL (72 h, time 3 day): 0.3 mg/dL
TC (72 h, time 3 day): 85.2 mg/dL
TG (72 h, time 3 day): 95 mg/dL
TP (72 h, time 3 day): 5.9 g/dL
gamma-GTP (72 h, time 3 day): 0.6 IU/L
TERMINAL_BW ([…], time 7 day): 257.2 g
TERMINAL_BW ([…], time 14 day): 299.4 g
TERMINAL_BW ([…], time 28 day): 362.5 g
APTT ([…], time 7 day): 16.8 s
Bas ([…], time 7 day): 0%
Eos ([…], time 7 day): 0.8%
Fbg ([…], time 7 day): 219.6 mg/dL
Hb ([…], time 7 day): 13.7 g/dL
Lym ([…], time 7 day): 83%
MCH ([…], time 7 day): 21 pg
MCHC ([…], time 7 day): 33.6%
MCV ([…], time 7 day): 62.5 fL
Mono ([…], time 7 day): 3%
Neu ([…], time 7 day): 13.2%
PT ([…], time 7 day): 12.1 s
Plat ([…], time 7 day): 103.7 x10_4/uL
RBC ([…], time 7 day): 652.6 x10_4/ul
Ret ([…], time 7 day): 4.5%
WBC ([…], time 7 day): 106.2 x10_2/uL
APTT ([…], time 14 day): 16.8 s
Bas ([…], time 14 day): 0%
Eos ([…], time 14 day): 0.4%
Fbg ([…], time 14 day): 223.2 mg/dL
Hb ([…], time 14 day): 14.3 g/dL
Lym ([…], time 14 day): 83.2%
MCH ([…], time 14 day): 20.6 pg
MCHC ([…], time 14 day): 33.5%
MCV ([…], time 14 day): 61.4 fL
Mono ([…], time 14 day): 5.4%
Neu ([…], time 14 day): 11%
PT ([…], time 14 day): 11.9 s
Plat ([…], time 14 day): 108 x10_4/uL
RBC ([…], time 14 day): 696 x10_4/ul
Ret ([…], time 14 day): 3%
WBC ([…], time 14 day): 149.6 x10_2/uL
APTT ([…], time 28 day): 17.2 s
Bas ([…], time 28 day): 0%
Eos ([…], time 28 day): 1%
Fbg ([…], time 28 day): 211.6 mg/dL
Hb ([…], time 28 day): 14.9 g/dL
Lym ([…], time 28 day): 84%
MCH ([…], time 28 day): 19.3 pg
MCHC ([…], time 28 day): 33.4%
MCV ([…], time 28 day): 57.7 fL
Mono ([…], time 28 day): 3.6%
Neu ([…], time 28 day): 11.8%
PT ([…], time 28 day): 12.1 s
Plat ([…], time 28 day): 95.6 x10_4/uL
RBC ([…], time 28 day): 775.2 x10_4/ul
Ret ([…], time 28 day): 2.4%
WBC ([…], time 28 day): 160.4 x10_2/uL
KIDNEY_L ([…], time 7 day): 1.1 g
KIDNEY_R ([…], time 7 day): 1.1 g
KIDNEY_TOTAL ([…], time 7 day): 2.2 g
KIDNEY_L ([…], time 14 day): 1.2 g
KIDNEY_R ([…], time 14 day): 1.1 g
KIDNEY_TOTAL ([…], time 14 day): 2.3 g
KIDNEY_L ([…], time 28 day): 1.3 g
KIDNEY_R ([…], time 28 day): 1.3 g
KIDNEY_TOTAL ([…], time 28 day): 2.6 g
LIVER ([…], time 7 day): 12.4 g
LIVER ([…], time 14 day): 13.5 g
LIVER ([…], time 28 day): 15.3 g
ALP ([…], time 7 day): 761.6 IU/L
ALT ([…], time 7 day): 30.4 IU/L
AST ([…], time 7 day): 60.4 IU/L
BUN ([…], time 7 day): 18.8 mg/dL
CRE ([…], time 7 day): 0.5 mg/dL
Ca ([…], time 7 day): 10.4 mg/dL
Cl ([…], time 7 day): 105.2 meq/L
DBIL ([…], time 7 day): 0.004 mg/dL
GLC ([…], time 7 day): 187.6 mg/dL
IP ([…], time 7 day): 7.9 mg/dL
K ([…], time 7 day): 4.7 meq/L
LDH ([…], time 7 day): 83.6 IU/L
Na ([…], time 7 day): 137.6 meq/L
PL ([…], time 7 day): 157.6 mg/dL
RALB ([…], time 7 day): 4 g/dL
TBIL ([…], time 7 day): 0.3 mg/dL
TC ([…], time 7 day): 74 mg/dL
TG ([…], time 7 day): 146.6 mg/dL
TP ([…], time 7 day): 5.9 g/dL
gamma-GTP ([…], time 7 day): 1.4 IU/L
ALP ([…], time 14 day): 728.4 IU/L
ALT ([…], time 14 day): 28 IU/L
AST ([…], time 14 day): 56.6 IU/L
BUN ([…], time 14 day): 19.6 mg/dL
CRE ([…], time 14 day): 0.6 mg/dL
Ca ([…], time 14 day): 10.8 mg/dL
Cl ([…], time 14 day): 103.4 meq/L
DBIL ([…], time 14 day): 0 mg/dL
GLC ([…], time 14 day): 179.4 mg/dL
IP ([…], time 14 day): 7.7 mg/dL
K ([…], time 14 day): 4.4 meq/L
LDH ([…], time 14 day): 92.4 IU/L
Na ([…], time 14 day): 135.2 meq/L
PL ([…], time 14 day): 147.8 mg/dL
RALB ([…], time 14 day): 4.1 g/dL
TBIL ([…], time 14 day): 0.2 mg/dL
TC ([…], time 14 day): 66.8 mg/dL
TG ([…], time 14 day): 160.2 mg/dL
TP ([…], time 14 day): 6 g/dL
gamma-GTP ([…], time 14 day): 1 IU/L
ALP ([…], time 28 day): 528.8 IU/L
ALT ([…], time 28 day): 29.6 IU/L
AST ([…], time 28 day): 59.6 IU/L
BUN ([…], time 28 day): 19.8 mg/dL
CRE ([…], time 28 day): 0.6 mg/dL
Ca ([…], time 28 day): 10.5 mg/dL
Cl ([…], time 28 day): 106.8 meq/L
DBIL ([…], time 28 day): 0.002 mg/dL
GLC ([…], time 28 day): 179.2 mg/dL
IP ([…], time 28 day): 6.6 mg/dL
K ([…], time 28 day): 4.4 meq/L
LDH ([…], time 28 day): 79.6 IU/L
Na ([…], time 28 day): 139.8 meq/L
PL ([…], time 28 day): 151.4 mg/dL
RALB ([…], time 28 day): 4.1 g/dL
TBIL ([…], time 28 day): 0.2 mg/dL
TC ([…], time 28 day): 73.2 mg/dL
TG ([…], time 28 day): 131 mg/dL
TP ([…], time 28 day): 6.3 g/dL
gamma-GTP ([…], time 28 day): 2 IU/L
